In one data set the test system is avb3. Put plainly: EC50 [nM]. The source says:
Table printed on a drawing sheet, FIG. 4
Head of the field: EC50 [nM]
The patent's description of the figure: FIG. 4: avb3 binding of selected examples and EC50 values
First copying reader's note: EC50 values relate to the αvβ3 binding assay plotted next to the table; R^2 is the goodness of fit of the curve.
Where the first naming reader finds the target: description_of_the_figure: FIG. 4: avb3 binding of selected examples and EC50 values

Data set [1] relates to SUM149. Briefly: Cytotoxicity in vitro in the presence and absence of elastase (MTT assay). Format: cell-based. Particulars: SUM149 cells, 72 h. The method in brief:
(§1)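 Two matched sets receive test compound across 10^−5 to 10^−13 M, one with 10 nM elastase added, and are incubated 72 h at 37 °C. Proliferation is measured by MTT (4 h, then overnight detergent lysis, 570 nm) against untreated controls.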
Background: Tetrazolium dyes change colour on reduction, which living cells bring about.

A short description of data set [2]: Compound stability in rat plasma. The data set is classed as in vitro ADME. Particulars: rat plasma at 37° C., 4-hour assay; for ester cleavage in rat plasma: detected by LC-MS. The protocol: (§2) Compound B1, Compound C2, and Compound C3 were evaluated for stability in plasma and/or buffer. Compound B1 was stable in rat plasma at 37° C. (FIG. 1 panel (a)) and in buffer at pH 7.4 (FIG. 1 panel (b)) for the duration of the 4-hour assay.
Method for measurement of stability in rat and human plasma: 1 mg of the test compound is dissolved in 0.5 ml acetonitrile/dimethylsulfoxide 1:1. For complete dissolution the HPLC vial is shaken and sonicated. While vortexing 20 μl of this solution are added to 1 ml 37° C. warm plasma. After 0.17, 0.5, 1, 1.5, 2 and 4 hours the enzymatic reaction is stopped by adding 100 μl of the compound plasma solution to a vial containing 300 μl acetonitrile/buffer pH3 (80:20) at RT. The mixture is centrifuged at 5000 rpm for 10 minutes. The supernatant is analyzed by HPLC to determine the amount of the test compound and up to two byproducts. To values result from a processed sample immediately taken after vortexing with plasma at RT. The peak areas (in percentage) are used for quantification. All data is given as percent area of the initial compound at to.

A short description of data set [3]: Compound stability in buffer. Particulars: for release of free payload in buffer: buffer at pH 4, within 24 hours. The data set is classed as physicochemical. As to the method:
as §2
Method for measurement of stability in buffer: 0.15 mg of the test compound are solved in 0.1 ml dimethylsulfoxide and 0.4 ml acetonitrile. For complete dissolution the HPLC vial with the sample solution is shaken and sonicated. Then 1.0 ml of the respective buffer solution is added, and the sample is vortexed. The sample solution is analysed by HPLC to determine the amount of the test compound and up to two byproducts at a particular time over a period of 24 h at 37° C. to values result from a sample immediately taken after vortexing with buffer at RT. The peak areas (in percentage) are used for quantification.

Data set [4] deals with NCI H292. Briefly: Cytotoxicity in vitro in the presence and absence of elastase (MTT assay). Particulars: NCI H292 cells, 72 h. The data set is classed as cell-based, human. The method in brief: as §1
For data set [5], the system named is HT29. The data set is described as above. The data set is classed as cell-based, human. To be noted: HT29 cells, 72 h. In a few lines:
as §1

For data set [6], the system named is 786-O. The description is as above. To be noted: 786-O cells, 72 h. The data set is classed as cell-based, human. In a few lines: as §1
Data set [7] relates to NCI H292. Briefly: Cytotoxicity assay (Version 2), automated, AC50. Format: cell-based, human. Particulars: NCI H292 cells, Version 2, activity concentration at -50%, 4 parameter Hill-fit. The protocol: (§3) Cultivation of cells was performed according to standard procedures with the media recommended by the provider. The cells, in a total volume of 100 μL, were seeded in a 96-well plate with a white bottom (#3610). After a 24 h incubation period at 37° C. and 5% CO2, the medium was exchanged by adding 90 μL fresh medium. The treatment started by adding the test compound in 10 μL of culture medium to the cells in triplicates. Concentrations ranging from 10^−5 M to 10^−13 M were chosen. Two identically treated sets of samples were prepared. One set was treated with the test compound alone, whereas to the second set the compound and 10 nM elastase was added followed by a 72 h incubation period at 37° C. and 5% CO2. The proliferation was detected using the MTT assay (ATCC). At the end of the incubation period the MTT reagent was added to all samples for 4h. Lysis of the cells followed by addition of the detergent was done overnight. The formed dye was detected at 570 nm. The proliferation of untreated but otherwise identically handled cells was define as the […].
(§4) The Cytotoxicity assay (Version 2) was performed as above described. Some changes were applied as the assays were performed in an automated fashion and the IC50 values determination was changed. Here the change in metabolic activity of the cells, in percent, was calculated by normalization of the measured values to the absorbance values of medium containing wells without cells (=−100% ) and the absorbance of the DMSO-treated cells (=0% ). AC50 values (activity concentration at -50% o) were determined by means of a 4 parameter Hill-fit using GeneData Screener software.

The test system of data set [8] is HT29. Briefly: Cytotoxicity assay (Version 2), automated, AC50. Format: cell-based, human. Particulars: HT29 cells, Version 2, activity concentration at -50%, 4 parameter Hill-fit. The protocol: as §3, §4
In data set [9] the test system is 786-O. Put plainly: Cytotoxicity assay (Version 2), automated, AC50. Format: cell-based, human. To be noted: 786-O cells, Version 2, activity concentration at -50%, 4 parameter Hill-fit. As to the method: as §3, §4
Data set [10] concerns SUM149. Briefly: Cytotoxicity assay (Version 2), automated, AC50. To be noted: SUM149 cells, Version 2, activity concentration at -50%, 4 parameter Hill-fit. The data set is classed as cell-based. As to the method: as §3, §4

Bounds are passed on as bounds.

The compound `CCCNC(=O)Nc1cccc(S(=O)(=O)Nc2cccc(C(CC(=O)O)NC(=O)Nc3ccc(NC(=O)NCCOCCOCCOCCC(=O)NCCCCC(NC(=O)CCOCCOCCOCCNC(=O)Nc4ccc(NC(=O)NC(CC(=O)O)c5cccc(NS(=O)(=O)c6cccc(NC(=O)NCCC)c6)c5)cc4)C(=O)NCCOCCOCCOCCC(=O)NC(CC(=O)O)C(=O)N4CCCC4C(=O)NC(C(=O)OC4(CC)C(=O)OCc5c4cc4n(c5=O)Cc5c-4nc4ccccc4c5CC)C(C)C)cc3)c2)c1` (stereo not drawn) [Compound A3] showed an EC50 in the data set with avb3 of 55 nM.

For `CCCNC(=O)Nc1cccc(S(=O)(=O)Nc2cccc([C@@H](CC(=O)O)NC(=O)Nc3ccc(NC(=O)N(C)CCN(C)CCN(C)CC(=O)N[C@@H](CC(N)=O)C(=O)N4CCC[C@H]4C(=O)N[C@H](C(=O)O[C@]4(CC)C(=O)OCc5c4cc4n(c5=O)Cc5c-4nc4ccccc4c5CC)C(C)C)cc3)c2)c1` [Compound B1, (4S)-4,11-diethyl-3,14-dioxo-3,4,12,14-tetrahydro-1H-pyrano[3′,4′:6,7]indolizino[1,2-b]quinolin-4-yl N-{2-[{2-[({4-[({(1R)-2-carboxy-1-[3-({3-[(propylcarbamoyl)amino]benzene-1-sulfonyl}amino)phenyl]ethyl}carbamoyl)amino]phenyl}carbamoyl)(methyl)amino]ethyl} (methyl)amino]ethyl}-N-methylglycyl-L-asparaginyl-L-prolyl-L-valinate], the IC50 in the data set with SUM149 [1] (compound alone (no elastase)) is 10 to 100 nM; with SUM149 [1] (with 10 nM elastase) it was 0.01 to 0.1 nM; in the data set on NCI H292 [4] (compound alone (no elastase)) it was 10 to 100 nM; in the data set with NCI H292 [4] (with 10 nM elastase), 0.1 to 1 nM; in the data set with HT29 [5] (compound alone (no elastase)) it was more than 100 nM; in the data set with HT29 [5] (with 10 nM elastase), 0.1 to 1 nM. The figures for the IC50 in the data set on 786-O [6] (compound alone (no elastase)) and in the data set on 786-O [6] (with 10 nM elastase) were 10 to 100 nM and 0.1 to 1 nM, respectively. Further, the “stability in rat plasma” value in data set [2] is listed as “stable”. The “stability in buffer at pH 7.4” value in data set [3] (buffer pH 7.4, 4-hour assay) is on record as “stable”.

`CCCNC(=O)Nc1cccc(S(=O)(=O)Nc2cccc([C@@H](CC(=O)O)NC(=O)Nc3ccc(NC(=O)NCCOCCOCCOCCC(=O)N[C@@H](CC(=O)OCCCN(C)C)C(=O)N4CCC[C@H]4C(=O)N[C@H](C(=O)O[C@]4(CC)C(=O)OCc5c4cc4n(c5=O)Cc5c-4nc4ccccc4c5CC)C(C)C)cc3)c2)c1` [Compound C2, (3R)-3-[({4-[({(9S)-9-[(2S)-2-{[(2S)-1-{[(4S)-4,11-diethyl-3,14-dioxo-3,4,12,14-tetrahydro-1H-pyrano[3′,4′:6,7]indolizino[1,2-b]quinolin-4-yl]oxy}-3-methyl-1-oxobutan-2-yl]carbamoyl}pyrrolidine-1-carbonyl]-2-methyl-7,11-dioxo-6,14,17,20-tetraoxa-2,10-diazadocosan-22-yl}carbamoyl)amino]phenyl}carbamoyl)amino]-3-[3-({3-[(propylcarbamoyl)amino]benzene-1-sulfonyl}amino)phenyl]propanoic acid]: the IC50 with SUM149 [1] (compound alone (no elastase)) lay in the range of 0.1 to 1 nM; with SUM149 [1] (with 10 nM elastase), 0.01 to 0.1 nM; in the data set with NCI H292 [4] (compound alone (no elastase)), 10 to 100 nM; in the data set on NCI H292 [4] (with 10 nM elastase), 0.1 to 1 nM; in the data set on HT29 [5] (compound alone (no elastase)), 1.1 to 10 nM; in the data set on HT29 [5] (with 10 nM elastase), 0.1 to 1 nM. Also, the concentration for half-maximal inhibition (IC50) was 10 to 100 nM in the data set with 786-O [6] (compound alone (no elastase)) and 0.1 to 1 nM in the data set with 786-O [6] (with 10 nM elastase). Moreover, the “ester cleavage in rat plasma” value in data set [2] is “slow ester cleavage and release of the aspartate moiety”. In addition, in data set [3], the “release of free payload in buffer” value is listed as “No release of free payload is detected”.

Turning to `CCCNC(=O)Nc1cccc(S(=O)(=O)Nc2cccc([C@@H](CC(=O)O)NC(=O)Nc3ccc(NC(=O)NCCOCCOCCOCCC(=O)N[C@@H](CC(=O)OCCCCN(C)C)C(=O)N4CCC[C@H]4C(=O)N[C@H](C(=O)O[C@]4(CC)C(=O)OCc5c4cc4n(c5=O)Cc5c-4nc4ccccc4c5CC)C(C)C)cc3)c2)c1` [Compound C3, (3R)-3-[({4-[({(10S)-10-[(2S)-2-{[(2S)-1-{[(4S)-4,11-Diethyl-3,14-dioxo-3,4,12,14-tetrahydro-1H-pyrano[3′,4′:6,7]indolizino[1,2-b]quinolin-4-yl]oxy}-3-methyl-1-oxobutan-2-yl]carbamoyl}pyrrolidine-1-carbonyl]-2-methyl-8,12-dioxo-7,15,18,21-tetraoxa-2,11-diazatricosan-23-yl}carbamoyl)amino]phenyl}carbamoyl)amino]-3-[3-({3-[(propylcarbamoyl)amino]benzene-1-sulfonyl}amino)phenyl]propanoic acid], the IC50 with SUM149 [1] (compound alone (no elastase)) was in the range of 1.1 to 10 nM; in the data set on SUM149 [1] (with 10 nM elastase), 0.01 to 0.1 nM; in the data set on NCI H292 [4] (compound alone (no elastase)), 10 to 100 nM; with NCI H292 [4] (with 10 nM elastase) it was 0.1 to 1 nM; in the data set with HT29 [5] (compound alone (no elastase)), 10 to 100 nM; in the data set on HT29 [5] (with 10 nM elastase) it was 0.1 to 1 nM. For the same compound, the IC50 in the data set with 786-O [6] (compound alone (no elastase)) fell in the range of 10 to 100 nM; in the data set with 786-O [6] (with 10 nM elastase), 0.1 to 1 nM. For the same compound, in data set [2], the “ester cleavage in rat plasma” value is “slow ester cleavage and release of the aspartate moiety”. Also, the “release of free payload in buffer” value in [3] is on record as “No release of free payload is detected”.

In the case of `CCCNC(=O)Nc1cccc(S(=O)(=O)Nc2cccc([C@@H](CC(=O)O)NC(=O)Nc3ccc(NC(=O)NCCOCCOCCOCCC(=O)N[C@@H](CCCCNC(=O)CCCC(=O)N(C)CC(=O)N(C)CC(=O)N(C)CC(=O)N(C)CC(=O)N(C)CC(=O)N(C)CC(=O)N(C)CC(=O)N(C)CC(=O)O)C(=O)NCCOCCOCCOCCC(=O)N[C@@H](CC(=O)O)C(=O)N4CCC[C@H]4C(=O)N[C@H](C(=O)O[C@]4(CC)C(=O)OCc5c4cc4n(c5=O)Cc5c-4nc4ccccc4c5CC)C(C)C)cc3)c2)c1` [Compound E4], the concentration at half-maximal activity (AC50) was 110 to 1000 nM with NCI H292 [7] (no elastase); not above 10 nM with NCI H292 [7] (with elastase); 110 to 1000 nM in the data set with HT29 [8] (no elastase); 11 to 100 nM with HT29 [8] (with elastase); 110 to 1000 nM in the data set with 786-O [9] (no elastase); not above 10 nM in the data set on 786-O [9] (with elastase). In addition, the AC50 in the data set with SUM149 [10] (no elastase) was 110 to 1000 nM; in the data set on SUM149 [10] (with elastase), not above 10 nM.

As a reminder, the EC50 is the concentration needed to bring the measured effect to its halfway point. One may read the IC50 as the concentration that inhibits the measured activity by half. A word on the AC50: it is the concentration at which the activity in the assay is half-maximal. Low readings indicate activity at low concentration, high ones activity only at high concentration.

These data come from patent US20240423973A1, “COMPOUNDS, PHARMACEUTICAL COMPOSITIONS, AND METHODS FOR THE TREATMENT, PREVENTION, OR MANAGEMENT OF HYPERPROLIFERATIVE DISORDERS” (VINCERX PHARMA GMBH, priority 2021, published 2024).
